Assay results reported in patent US12636253B2, “Modified release compositions of nafamostat and methods of using same” (Ensysce Biosciences Inc., priority 2021, dated 2026).
Where two headings read alike, the source gives them in different places.

Experiments:
[1] = cited from earlier work
[2] = Effect of nafamostat on plasma oxycodone after oral KC-8 in rats; assay type: in vivo; details: nafamostat co-administered with an oxycodone or hydromorphone derivative
Experimental: The drug nafamostat mesylate was added to the formulations containing the KC-8 oxycodone-derivative. In the examples described herein, the terms “nafamostat mesylate” and “nafamostat” are used interchangeably.
Formulations containing both KC-8 and optionally nafamostat were administered orally to rats. The KC-8 dose was 5 mg/kg and the nafamostat concentration was 0, 0.1, 0.5, or 1 mg/kg. Plasma concentrations of active oxycodone were measured at various time intervals over 24 hours after administration.
In contrast, additional nafamostat reduced the maximum oxycodone concentration to a peak of about 0.75 ng/ml at about 5 hours. The error bars represent one standard deviation.
In particular, the rats received 50 mg/kg of KC-8 and 0, 1, 5, or 10 mg/kg of nafamostat. With zero nafamostat, blood plasma concentration experienced a maximum of about 22 ng/ml at about 2 hours, wherein the concentration rapidly descended thereafter. In alignment with the data of FIG. 2, higher concentrations of nafamostat reduced the peak concentration to about 3 ng/ml at about 8 hours.

[3] = Blood hydromorphone after 1, 3, 6 or 10 pills of PF329 with or without nafamostat in rats; assay type: in vivo; details: rats, 1, 3, 6 or 10 PF329 pills containing nafamostat (FIG. 5)
Source text: The rat experiments were repeated with a derivative of hydromorphone (referred to herein as PF329), which is another known pain medication. FIGS. 4 and 5 show the blood concentration of active hydromorphone (HM) after the administration of 1, 3, 6, or 10 pills, either without or with nafamostat.

In the case of `COc1ccc2c3c1O[C@H]1C(OC(=O)N(C)CC(C)(C)CNC(=O)[C@H](CCCNC(=N)N)NC(=O)CNC(=O)CC(=O)O)=CC[C@@]4(O)[C@@H](C2)N(C)CC[C@]314` [KC-8, N-1-[3-(oxycodone-6-enol-carbonyl-methyl-amino)-2,2-dimethyl-propylamine]-arginine-glycine-malonic acid], the safety and tolerability ([1]; previous SAD study, doses of up to 200 mg KC-8 (80 mg oxycodone)) is given as “safe and well tolerated”.

In the case of `N=C(N)c1ccc2cc(OC(=O)c3ccc(N=C(N)N)cc3)ccc2c1` [nafamostat, 6-carbamimidoylnaphthalen-2-yl 4-(diaminomethyleneamino)benzoate], the “effect on maximum concentration of active drug in blood plasma” value [2] is given as “significantly reduced the maximum concentration of active drug in blood plasma”, the “change of hydromorphone blood concentration on administering more pills” value [3] is given as “little increase” and the safety and tolerability ([1]; 200 mg nafamostat, healthy volunteer SAD data) is given as “safe and well tolerated”.
